Square brackets hold non-standard residues; d marks the D form. Ends that are not written are not given here. Peptide text beside a SMILES is read from it. * marks the point of attachment. Biotin = O=C1N[C@H]2[C@H](CS[C@H]2CCCCC(=O)*)N1; Phe(4-CH2NH2) = NCc1ccc(C[C@H](N)C(=O)O)cc1; Arg(Me2s) = CN=C(NC)NCCC[C@H](N)C(=O)O; hArg = N=C(N)NCCCC[C@H](N)C(=O)O; Cha = N[C@@H](CC1CCCCC1)C(=O)O; Lys(Me) = CNCCCC[C@H](N)C(=O)O; Cba = N[C@@H](CC1CCC1)C(=O)O; PEG4 = NCCOCCOCCOCCOCCC(=O)O; Pip = O=C(O)[C@@H]1CCCCN1; Dab = NCC[C@H](N)C(=O)O
B1: menin (protein)
chain: MGLKAAQKTLFPLRSIDDVVRLFAAELGREEPDLVLLSLVLGFVEHFLAVNRVIPTNVPELTFQPSPAPDPPGGLTYFPVADLSIIAALYARFTAQIRGAVDLSLYPREGGVSSRELVKKVSDVIWNSLSRSYFKDRAHIQSLFSFITGTKLDSSGVAFAVVGACQALGLRDVHLALSEDHAWVVFGPNGEQTAEVTWHGKGNEDRRGQTVNAGVAERSWLYLKGSYMRCDRKMEVAFMVCAINPSIDLHTDSLELLQLQQKLLWLLYDLGHLERYPMALGNLADLEELEPTPGRPDPLTLYHKGIASAKTYYRDEHIYPYMYLAGYHCRNRNVREALQAWADTATVIQDYNYCREDEEIYKEFFEVANDVIPNLLKEAASLLEAGEERPGEQSQGTQSQGSALQDPECFAHLLRFYDGICKWEEGSPTPVLHVGWATFLVQSLGRFEGQVRQKVRIVSREAEAAEAEEPWGEEAREGRRRGPRRESKPEEPPPPKKPALDKGLGTGQGAVSGPPRKPPGTVAGTARGPEGGSTAQVPAPTASPPPEGPVLTFQSEKMKGMKELLVATKINSSAIKLQLTAQSQVQMKKQKVSTPSDYTLSFLKRQRKGL

Target: T1, tMBM3 (truncated MLL menin binding motif) (Homo sapiens, also: additional C-terminal Arg)
T1 chain: RFPARPR
Test: BLI
Details: not given

Molecule | Kd
B1 | > 3800 nM

Target: T2, recombinant menin protein (Homo sapiens, UniProt O00255)
T2 sequence (O00255 1-610): B1 chain
Test: Bio-layer interferometry peptide-binding validation (Octet RED96)
Details: not given

Molecule | Kd | KD (nM), apparent dissociation constant
CC(C)[C@H](NC(=O)[C@@H]1CCCCN1C(=O)[C@H](CC1CCC1)NC(=O)[C@H](CCCNC(=N)N)NC(=O)CCOCCOCCOCCOCCNC(=O)CCCC[C@@H]1SC[C@@H]2NC(=O)N[C@@H]21)C(=O)N[C@@H](CCCNC(=N)N)C(=O)N1CCCC[C@H]1C(=O)N[C@@H](CCCNC(=N)N)C(N)=O [hit 1] ({Biotin-PEG4}-R[Cba][Pip]VR[Pip]R-NH2) | 34 nM | 
C[C@H](NC(=O)[C@@H]1CCCN1C(=O)[C@H](Cc1ccccc1)NC(=O)[C@H](CCCNC(=N)N)NC(=O)[C@H](Cc1c[nH]c2ccccc12)NC(=O)[C@@H](N)CCCNC(=N)N)C(=O)N[C@@H](CCCNC(=N)N)C(=O)N1CCC[C@H]1C(=O)N[C@@H](CCCNC(=N)N)C(N)=O [tMBM1] (H-RWRFPARPR-NH2) | 14 nM | 
CNCCCC[C@H](NC(=O)[C@@H](NC(=O)[C@@H]1CCCCN1C(=O)[C@H](CC1CCCCC1)NC(=O)[C@H](CCCCN)NC(=O)CCOCCOCCOCCOCCNC(=O)CCCC[C@@H]1SC[C@@H]2NC(=O)N[C@@H]21)C(C)C)C(=O)N1CCCC[C@H]1C(=O)N[C@@H](CCCNC(=N)N)C(N)=O [hit 6-4] ({Biotin-PEG4}-K[Cha][Pip]V[Lys(Me)][Pip]R-NH2) | 87 nM | 
C[C@H](NC(=O)[C@@H]1CCCN1C(=O)[C@H](Cc1ccccc1)NC(=O)[C@H](CCCNC(=N)N)NC(=O)[C@H](Cc1c[nH]c2ccccc12)NC(=O)CCOCCOCCOCCOCCNC(=O)CCCC[C@@H]1SC[C@@H]2NC(=O)N[C@@H]21)C(=O)N[C@@H](CCCNC(=N)N)C(=O)N1CCC[C@H]1C(=O)N[C@@H](CCCNC(=N)N)C(N)=O [tMBM2] ({Biotin-PEG4}-WRFPARPR-NH2) | 67 nM | 
C[C@H](NC(=O)[C@@H]1CCCN1C(=O)[C@H](Cc1ccccc1)NC(=O)[C@H](CCCNC(=N)N)NC(=O)[C@H](Cc1c[nH]c2ccccc12)NC(=O)[C@@H](N)CCCNC(=N)N)C(=O)N[C@@H](CCCNC(=N)N)C(=O)N1CCC[C@H]1C(N)=O [MBM1, reference compound] (H-RWRFPARP-NH2) | 30 nM | 
C[C@H](NC(=O)[C@@H]1CCCN1C(=O)[C@H](Cc1ccccc1)NC(=O)[C@H](CCCNC(=N)N)NC(=O)CCOCCOCCOCCOCCNC(=O)CCCC[C@@H]1SC[C@@H]2NC(=O)N[C@@H]21)C(=O)N[C@@H](CCCNC(=N)N)C(=O)N1CCC[C@H]1C(=O)N[C@@H](CCCNC(=N)N)C(N)=O [tMBM3] ({Biotin-PEG4}-RFPARPR-NH2) | > 3800 nM | 3800 nM
CC(C)[C@H](NC(=O)[C@@H]1CCCCN1C(=O)[C@H](CC1CCCCC1)NC(=O)[C@H](CCN)NC(=O)CCOCCOCCOCCOCCNC(=O)CCCC[C@@H]1SC[C@@H]2NC(=O)N[C@@H]21)C(=O)N[C@@H](CCCNC(=N)N)C(=O)N1CCCC[C@H]1C(=O)N[C@@H](Cc1ccc(CN)cc1)C(N)=O [hit 6-2] ({Biotin-PEG4}-[Dab][Cha][Pip]VR[Pip][Phe(4-CH2NH2)]-NH2) | 45 nM | 
CC(C)[C@H](NC(=O)[C@@H]1CCCCN1C(=O)[C@H](CC1CCCCC1)NC(=O)[C@H](CCCNC(=N)N)NC(=O)CCOCCOCCOCCOCCNC(=O)CCCC[C@@H]1SC[C@@H]2NC(=O)N[C@@H]21)C(=O)N[C@@H](CCCNC(=N)N)C(=O)N1CCCC[C@H]1C(=O)N[C@@H](CCCNC(=N)N)C(N)=O [hit 6] ({Biotin-PEG4}-R[Cha][Pip]VR[Pip]R-NH2) | 40 nM | 
CC(C)[C@H](NC(=O)[C@@H]1CCCCN1C(=O)[C@H](CC1CCCCC1)NC(=O)[C@H](CCN)NC(=O)CCOCCOCCOCCOCCNC(=O)CCCC[C@@H]1SC[C@@H]2NC(=O)N[C@@H]21)C(=O)N[C@@H](CCCCNC(=N)N)C(=O)N1CCCC[C@H]1C(=O)N[C@@H](CCCNC(=N)N)C(N)=O [hit 6-3] ({Biotin-PEG4}-[Dab][Cha][Pip]V[hArg][Pip]R-NH2) | 34 nM | 
CNCCCC[C@H](NC(=O)[C@@H](NC(=O)[C@@H]1CCCCN1C(=O)[C@H](CC1CCCCC1)NC(=O)[C@H](Cc1c[nH]cn1)NC(=O)CCOCCOCCOCCOCCNC(=O)CCCC[C@@H]1SC[C@@H]2NC(=O)N[C@@H]21)C(C)C)C(=O)N1CCCC[C@H]1C(=O)N[C@@H](CCCNC(=N)N)C(N)=O [hit 6-5] ({Biotin-PEG4}-H[Cha][Pip]V[Lys(Me)][Pip]R-NH2) | 110 nM | 
CN=C(NC)NCCC[C@H](NC(=O)[C@@H](NC(=O)[C@@H]1CCCCN1C(=O)[C@H](CC1CCCCC1)NC(=O)[C@H](CCCCN)NC(=O)CCOCCOCCOCCOCCNC(=O)CCCC[C@@H]1SC[C@@H]2NC(=O)N[C@@H]21)C(C)C)C(=O)N1CCCC[C@H]1C(=O)N[C@@H](CCCNC(=N)N)C(N)=O [hit 6-1] ({Biotin-PEG4}-K[Cha][Pip]V[Arg(Me2s)][Pip]R-NH2) | 20 nM | 

Target: human ACE2 (Homo sapiens, UniProt Q9BYF1)
Test: not given
Type: binding
Details: highest tested peptide concentration 1000 nM; also biosensor alone

Sequence of human ACE2 (Q9BYF1 18-805): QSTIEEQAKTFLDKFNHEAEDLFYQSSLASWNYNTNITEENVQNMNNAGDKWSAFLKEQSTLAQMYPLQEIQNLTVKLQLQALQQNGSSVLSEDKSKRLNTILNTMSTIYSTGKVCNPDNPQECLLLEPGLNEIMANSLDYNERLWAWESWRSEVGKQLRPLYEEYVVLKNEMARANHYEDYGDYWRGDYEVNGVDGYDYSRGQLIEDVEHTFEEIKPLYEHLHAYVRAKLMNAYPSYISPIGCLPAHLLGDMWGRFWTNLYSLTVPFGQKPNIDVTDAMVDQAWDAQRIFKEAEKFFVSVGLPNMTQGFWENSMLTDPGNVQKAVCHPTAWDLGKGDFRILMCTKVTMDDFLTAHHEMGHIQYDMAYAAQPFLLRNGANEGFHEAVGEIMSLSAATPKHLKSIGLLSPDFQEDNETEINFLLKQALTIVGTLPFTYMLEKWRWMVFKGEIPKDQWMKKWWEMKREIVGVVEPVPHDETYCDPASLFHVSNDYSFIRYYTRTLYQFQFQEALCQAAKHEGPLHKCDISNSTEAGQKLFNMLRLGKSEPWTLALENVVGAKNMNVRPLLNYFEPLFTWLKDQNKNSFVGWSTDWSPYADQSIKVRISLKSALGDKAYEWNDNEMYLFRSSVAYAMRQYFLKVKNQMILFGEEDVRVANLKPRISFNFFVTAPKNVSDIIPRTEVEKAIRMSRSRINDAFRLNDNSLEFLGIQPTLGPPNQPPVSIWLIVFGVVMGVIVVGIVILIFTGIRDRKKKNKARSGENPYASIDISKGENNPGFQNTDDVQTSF

Molecule | capture by control protein
YPYDVPDYAK [HA tag] | not captured

From PMC8372318, “Automated affinity selection for rapid discovery of peptide binders” (Chemical Science, 2021)
